Experimental data reported in patent US20060235222A1, “Indole-derivative modulators of steroid hormone nuclear receptors” (ELI LILLY AND COMPANY, priority 2003, published 2006).

Assays:
[1] = target: T1, human MR (Homo sapiens, UniProt P08235); experiment: Mineralocorticoid Receptor Binding Assay (Method 1), [3H]-aldosterone competition; settings: 0.5 nM [3H]-aldosterone, human MR expressed in Sf9 cells
T1 construct: The full length human MR gene is cloned from a human kidney or human brain cDNA library; inferred from own knowledge of the pAcHLT vector (N); made in house; host or cells: Sf9 insect cells (baculovirus)
T1 sequence (P08235 1-984): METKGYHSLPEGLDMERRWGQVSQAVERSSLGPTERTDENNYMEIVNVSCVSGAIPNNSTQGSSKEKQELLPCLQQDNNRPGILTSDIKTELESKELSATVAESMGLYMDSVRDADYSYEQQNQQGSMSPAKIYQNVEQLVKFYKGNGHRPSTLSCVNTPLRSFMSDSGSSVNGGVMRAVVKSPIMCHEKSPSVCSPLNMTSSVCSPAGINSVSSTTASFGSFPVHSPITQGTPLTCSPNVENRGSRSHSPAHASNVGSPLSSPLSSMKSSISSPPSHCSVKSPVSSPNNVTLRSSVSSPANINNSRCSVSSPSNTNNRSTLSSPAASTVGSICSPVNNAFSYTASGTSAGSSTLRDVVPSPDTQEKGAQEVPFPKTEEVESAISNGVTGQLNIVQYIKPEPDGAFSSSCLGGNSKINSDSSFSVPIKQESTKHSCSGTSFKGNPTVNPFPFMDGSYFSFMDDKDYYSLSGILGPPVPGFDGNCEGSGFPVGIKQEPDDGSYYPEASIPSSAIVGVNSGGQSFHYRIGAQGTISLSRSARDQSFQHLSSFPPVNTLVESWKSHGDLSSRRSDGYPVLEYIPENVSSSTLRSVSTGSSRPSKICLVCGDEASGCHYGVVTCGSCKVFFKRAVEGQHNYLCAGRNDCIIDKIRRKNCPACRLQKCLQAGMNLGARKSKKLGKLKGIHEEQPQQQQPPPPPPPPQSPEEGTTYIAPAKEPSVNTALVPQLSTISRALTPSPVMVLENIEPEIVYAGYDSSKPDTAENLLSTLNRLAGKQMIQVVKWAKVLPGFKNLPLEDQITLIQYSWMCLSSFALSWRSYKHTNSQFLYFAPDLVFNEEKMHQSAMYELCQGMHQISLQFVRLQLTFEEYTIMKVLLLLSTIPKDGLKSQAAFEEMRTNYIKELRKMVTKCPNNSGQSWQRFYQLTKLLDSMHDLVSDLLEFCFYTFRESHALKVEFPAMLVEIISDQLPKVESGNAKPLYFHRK
Summary of the method: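 Full-length human MR expressed in Sf9 cells via baculovirus; lysate supernatant (about 20-25 μg protein) incubated with 0.5 nM [3H]-aldosterone and test compound for about 16 h at 4° C. Buffer was Tris/molybdate/phosphate/pyrophosphate with 10% glycerol, pH 7.5; filter-bound complex counted by scintillation.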

[2] = target: T2, human GR (glucocorticoid receptor) (Homo sapiens, UniProt P04150); experiment: Alternative Binding Assay Protocol (Method 2), 293-GR lysate, 3H-dexamethasone competition; settings: 0.3 nM 3H-dexamethasone
T2 construct: expressed in transfected cells; host or cells: 293 cells
T2 sequence (P04150 1-777): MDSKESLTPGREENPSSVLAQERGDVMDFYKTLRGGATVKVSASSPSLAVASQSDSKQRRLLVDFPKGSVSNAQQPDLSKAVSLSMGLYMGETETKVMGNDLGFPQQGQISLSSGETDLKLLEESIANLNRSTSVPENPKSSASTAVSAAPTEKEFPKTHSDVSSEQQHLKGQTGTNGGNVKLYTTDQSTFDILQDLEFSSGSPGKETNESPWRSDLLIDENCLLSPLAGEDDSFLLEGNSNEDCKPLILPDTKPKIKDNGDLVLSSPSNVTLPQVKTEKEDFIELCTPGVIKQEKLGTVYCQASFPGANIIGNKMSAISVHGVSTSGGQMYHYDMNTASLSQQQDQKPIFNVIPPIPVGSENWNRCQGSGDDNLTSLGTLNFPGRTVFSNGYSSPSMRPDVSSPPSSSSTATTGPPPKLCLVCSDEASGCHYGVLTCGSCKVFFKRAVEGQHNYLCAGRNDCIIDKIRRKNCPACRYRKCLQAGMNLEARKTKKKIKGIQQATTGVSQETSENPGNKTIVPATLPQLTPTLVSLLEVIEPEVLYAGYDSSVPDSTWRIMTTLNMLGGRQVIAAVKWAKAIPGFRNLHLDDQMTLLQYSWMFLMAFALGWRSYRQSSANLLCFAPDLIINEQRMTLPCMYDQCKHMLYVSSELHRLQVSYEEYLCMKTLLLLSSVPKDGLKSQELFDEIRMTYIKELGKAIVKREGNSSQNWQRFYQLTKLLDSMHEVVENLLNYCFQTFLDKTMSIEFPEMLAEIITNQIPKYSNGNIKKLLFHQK
Description: Alternative Binding Assay Protocol for MR, GR, AR, and PR (Method 2):
Cell lysates from 293 cells overexpressing human GR (glucocorticoid receptor), AR (androgen receptor), MR (mineralocorticoid receptor) or PR (progesterone-receptor) are used for competition binding assays to determine Ki values for test compounds. […] Competing compounds are added at various concentraions in half-log increments. Non-specific binding is determined in the presence of 500 nM dexamethasone for GR binding, 500 nM aldosterone for MR binding, or 500 nM methyltrienolone for AR and PR binding. The binding reaction (140 μl) is incubated for overnight at 4° C., then 70 μl of cold charcoal-dextran buffer (containing per 50 ml of assay buffer, 0.75 g of charcoal and 0.25 g of dextran) is added to each reaction. Plates are mixed 8 minutes on an orbital shaker at 4° C. Plates are then centrifuged at 3,000 rpm at 4° C. for 10 minutes. An aliquot of 120 μl of the mix is transferred to another 96-well plate and 175 μl of Wallac Optiphase “Hisafe 3” scintillation fluid is added to each well. Plates are sealed and shaken vigorously on an orbital shaker. After an incubation of 2 hrs, plates are read in a Wallac Microbeta counter. […] The Kd for ^3H-dexamethasone for GR binding, ^3H-methyltrienolone for AR binding, ^3H-aldosterone for MR binding, or ^3H-methyltrienolone for PR binding, is determined by saturation binding. The IC50 values for compounds are converted to Ki using Cheng-Prusoff equation and the Kd determined by saturation binding assay.

Row | melting point | Ki [1] | Ki [2] | Structure (SMILES)
1 | 112 to 117 °C | – | – | CCC(CC)(c1ccc2sc(C)nc2c1)c1c[nH]c2c(NS(C)(=O)=O)cccc12 [Example 140, N-{3-[1-Ethyl-1-(2-methyl-benzothiazol-5-yl)-propyl]-1H-indol-7-yl}-methanesulfonamide]
2 | 152 to 160 °C | – | – | CCC(CC)(c1ccc2oc(C)nc2c1)c1c[nH]c2c(NS(C)(=O)=O)cccc12 [Example 145, N-{3-[1-Ethyl-1-(2-methyl-benzooxazol-5-yl)-propyl]-1H-indol-7-yl}-methanesulfonamide]
3 | 266 to 268 °C | – | – | CCC(CC)(c1ccc2sc(NC(C)=O)nc2c1)c1c[nH]c2c(NS(C)(=O)=O)cccc12 [Example 150, N-{5-[1-Ethyl-1-(7-methanesulfonylamino-1H-indol-3-yl)-propyl]-benzothiazol-2-yl}-acetamide]
4 | 225 to 235 °C | – | – | CCC(CC)(c1ccc2nc(C(F)(F)F)[nH]c2c1)c1c[nH]c2c(NS(C)(=O)=O)cccc12 [Example 151, N-{3-[1-Ethyl-1-(2-trifluoromethyl-3H-benzoimidazol-5-yl)-propyl]-1H-indol-7-yl}-methanesulfonamide]
5 | 100 to 105 °C | – | – | CCC(CC)(c1ccc2oc(C)cc2c1)c1c[nH]c2c(NS(C)(=O)=O)cccc12 [Example 155, N-{3-[1-Ethyl-1-(2-methyl-benzofuran-5-yl)-propyl]-1H-indol-7-yl}-methanesulfonamide]
6 | 125 to 130 °C | – | – | CCC(CC)(c1ccc2c(ccn2C(C)=O)c1)c1c[nH]c2c(NS(C)(=O)=O)cccc12 [Example 156, N-{3-[1-(1-Acetyl-1H-indol-5-yl)-1-ethyl-propyl]-1H-indol-7-yl}-methanesulfonamide]
7 | 85 to 90 °C | – | – | CCC(CC)(c1cccc2oc(C)cc12)c1c[nH]c2c(NS(C)(=O)=O)cccc12 [Example 160, N-{3-[1-Ethyl-1-(2-methyl-benzofuran-4-yl)-propyl]-1H-indol-7-yl}-methanesulfonamide]
8 | – | < 500 nM | < 500 nM | C[C@](c1ccc(Cl)cc1)(c1c[nH]c2c(NS(C)(=O)=O)cccc12)C1CC1 [Example 164]
9 | – | < 500 nM | < 500 nM | CCC(c1ccc(F)cc1)(c1c[nH]c2c(NS(C)(=O)=O)cccc12)C1CC1 (centres unmarked) [Example 165]
10 | – | < 500 nM | < 500 nM | CC(c1ccc(Cl)cc1)(c1c[nH]c2c(NS(C)(=O)=O)cccc12)C1CC1 (centres unmarked) [Example 167]
11 | – | < 500 nM | < 500 nM | CC(c1ccccc1F)(c1c[nH]c2c(NS(C)(=O)=O)cccc12)C1CC1 (centres unmarked) [Example 168]
12 | – | < 500 nM | < 500 nM | Cc1ccc(C(C)(c2c[nH]c3c(NS(C)(=O)=O)cccc23)C2CC2)cc1 (centres unmarked) [Example 169]
13 | – | < 500 nM | < 500 nM | COc1ccc(C(C)(c2c[nH]c3c(NS(C)(=O)=O)cccc23)C2CC2)cc1 (centres unmarked) [Example 170]
14 | – | – | < 500 nM | CCc1ccc(C(CC)(CC)c2c[nH]c3c(NS(C)(=O)=O)cccc23)cc1 [Example 171]
15 | – | < 500 nM | < 500 nM | C[C@](c1ccccc1F)(c1c[nH]c2c(NS(C)(=O)=O)cccc12)C1CC1 [Example 172]
16 | – | < 500 nM | < 500 nM | C[C@](c1ccc(F)cc1)(c1c[nH]c2c(NS(C)(=O)=O)cccc12)C1CC1 [Example 173]
17 | – | < 500 nM | < 500 nM | C[C@@](c1ccc(Cl)cc1)(c1c[nH]c2c(NS(C)(=O)=O)cccc12)C1CC1 [Example 174]

Row | melting point | Ki [1] | Ki [2] | Structure (SMILES)
18 | – | < 500 nM | < 500 nM | CC(c1ccc2c(c1)OCO2)(c1c[nH]c2c(NS(C)(=O)=O)cccc12)C1CC1 (centres unmarked) [Example 175]
19 | – | – | < 500 nM | CCCC(CCC)(c1ccc(OC)cc1)c1c[nH]c2c(NS(C)(=O)=O)cccc12 [Example 176]
20 | – | < 500 nM | < 500 nM | CC(c1ccccc1)(c1c[nH]c2c(NS(C)(=O)=O)cccc12)C1CC1 (centres unmarked) [Example 178]
21 | – | < 500 nM | < 500 nM | CCCC(c1ccc(F)cc1)(c1c[nH]c2c(NS(C)(=O)=O)cccc12)C1CC1 (centres unmarked) [Example 179]
22 | – | < 500 nM | < 500 nM | C[C@@](c1ccccc1F)(c1c[nH]c2c(NS(C)(=O)=O)cccc12)C1CC1 [Example 180]
23 | – | < 500 nM | < 500 nM | CCC(CC)(c1ccc2oc(C)cc2c1)c1c[nH]c2c(NS(C)(=O)=O)cccc12 [Example 181]
24 | – | < 500 nM | < 10000 nM | CCC(CC)(c1ccc(C(C)C)cc1)c1c[nH]c2c(NS(C)(=O)=O)cccc12 [Example 182]
25 | – | < 500 nM | < 500 nM | CCCCC(c1ccc(F)cc1)(c1c[nH]c2c(NS(C)(=O)=O)cccc12)C1CC1 (centres unmarked) [Example 185]
26 | – | < 500 nM | < 500 nM | C[C@@](c1ccc(F)cc1)(c1c[nH]c2c(NS(C)(=O)=O)cccc12)C1CC1 [Example 186]
27 | – | < 500 nM | < 500 nM | CC(C)CC(C)(c1ccccc1)c1c[nH]c2c(NS(C)(=O)=O)cccc12 (centres unmarked) [Example 187]
28 | – | < 500 nM | < 500 nM | CC1(c2c[nH]c3c(NS(C)(=O)=O)cccc23)CCCCc2ccccc21 (centres unmarked) [Example 189]
29 | – | < 500 nM | < 500 nM | CCC(CC)(c1ccc2sc(C)nc2c1)c1c[nH]c2c(NS(C)(=O)=O)cccc12 [Example 190]
30 | – | < 500 nM | < 1000 nM | CCC(CC)(c1ccc2oc(C)nc2c1)c1c[nH]c2c(NS(C)(=O)=O)cccc12 [Example 191]
31 | – | < 500 nM | < 500 nM | CCC(CC)(c1ccc2nc(C)oc2c1)c1c[nH]c2c(NS(C)(=O)=O)cccc12 [Example 193]
32 | – | < 500 nM | < 1000 nM | CCC(CC)(c1ccc2c(ccn2C(C)=O)c1)c1c[nH]c2c(NS(C)(=O)=O)cccc12 [Example 195]
33 | – | < 500 nM | < 500 nM | CCC(CC)(c1ccc(N2CCOCC2)cc1)c1c[nH]c2c(NS(C)(=O)=O)cccc12 [Example 197]
34 | – | < 1000 nM | < 500 nM | CCC(CC)(c1ccc2nc(NC(C)=O)sc2c1)c1c[nH]c2c(NS(C)(=O)=O)cccc12 [Example 199]
